{"source": "patent US9914750B2", "about": "“Synthetic peptides and peptide mimetics” (University of Louisville Research Foundation, priority 2007, dated 2018)", "key": {"[1]": {"system": "P. aeruginosa", "assay": "Antibacterial activity in vivo, Romaine lettuce infection model", "parameters": "species or system Pseudomonas aeruginosa", "details": "200 μg/ml peptide injected with bacteria, scored after 2-3 days", "method": "FIG. 4: Antibacterial activity in vivo. Romaine lettuce leaves were injected with P. aeruginosa (10^8 cells/nil) in the presence or absence of 200 μg/ml of antibacterial peptides. After 2-3 days incubation the injection sites were scored for infection on a scale of 0-100% relative to the no-bacteria (0% infection) and bacteria-only controls (PAO1) (100%). Data are from six independent experiments and are shown as mean±SEM, N=4−12. *) P<0.04, **) P<0.003.\nRomaine lettuce heads were purchased from local grocery stores. Outer leaves were removed and undamaged leaves were selected. The leaves were rinsed in 0.1% bleach and incubated in plastic containers on filter paper moistened with 10 mM MgSO4. Overnight cultures of P. aeruginosa were diluted to 10^8 CFU/ml in 10 mM MgSO4 and supplemented with 200 μg/ml of each peptide. Ten μl (10^6 CFU, 2 μg peptide) were injected into the midrib of each leaf using a micro pipetter. Blank controls were incubated with buffer only, and bacterial controls were incubated without peptide. The plastic trays were covered and incubated at 35° C. Leaves were inspected daily for browning around the injection site or along the midrib. Generally rotting or moldy leaves were discarded. Infection was scored on a scale from 0% to 100% relative to blank controls and bacterial controls, respectively."}, "[2]": {"system": "P. aeruginosa PAO1", "assay": "MIC determination, broth dilution assay (growth OD 570 nm, pelleting in wells)", "format": "cell-based, Pseudomonas aeruginosa", "method": "(§1) FIGS. 5A and 5B: PSP peptides lack bacteriostatic activity. P. aeruginosa PAO1 or A. actinomycetemcomitans JP2 (10^5 cells/ml) were incubated overnight with two-fold serial dilutions of the indicated peptides. The OD was determined at 570 nm. The data for P. aeruginosa (FIG. 5A) are representative of six independent experiments. The data for A. actinomycetemcomitans (FIG. 5B) are representative of three independent experiments. Filled squares, lysozyme; open diamonds, no peptide; open triangles, KL-11; filled triangles, GK-7; open squares, GL-13; filled diamonds, LL-37. […] Lysozyme inhibits growth about 50%. None of the PSP peptides inhibit growth.\nFIG. 6A-6C: GL13 causes bacterial cell spreading. Microtiter plates used to determine bacteriostatic activity (FIG. 5) were photographed after overnight incubation with serial dilutions of the indicated peptides. The diameter of the P. aeruginosa pellets in the presence of GL13 was determined and expressed relative to the peptide concentration in each well. A. Graph of the results. B and C are representative depictions of P. aeruginosa and A. actinomycetemcomitans, respectively, spreading in the presence of PSP peptides.\nThe minimal inhibitory concentration (MIC) of PSP peptides was tested using the broth dilution assay. […] Bacterial growth was quantitated by the optical density (OD) at 570 nm. […]"}, "[3]": {"system": "A. actinomycetemcomitans JP2", "assay": "MIC determination, broth dilution assay (growth OD 570 nm, pelleting in wells)", "format": "cell-based, Aggregatibacter (Actinobacillus) actinomycetemcomitans", "method": "as §1\nThe minimal inhibitory concentration (MIC) of PSP peptides was tested using the broth dilution assay. Briefly, overnight cultures of bacteria were diluted in Mueller-Hinton broth (MHB) (Difco) to 10^5 CFU/ml. Diluted bacteria (100 μl) and two-fold serial dilutions of peptides in 10 mM sodium phosphate, pH 7.4 (20 μl) were mixed in polypropylene microtiter plates and incubated for 24 h at 35° C. for P. aeruginosa or 48 h at 37° C. under reduced oxygen conditions for A. actinomycetemcomitans. Control samples were incubated with bacteria and two-fold serial dilutions of 20 μl 0.01% acetic acid in 10 mM sodium phosphate. Bacterial growth was quantitated by the optical density (OD) at 570 nm. […]"}, "[4]": {"system": "P. aeruginosa PAO1", "assay": "Biofilm formation / bacterial adhesion assay, PVC microtiter plates, crystal violet", "format": "cell-based, Pseudomonas aeruginosa", "details": "50 μg/ml, 6 h, aerobic", "method": "FIGS. 7A and 7B: PSP-peptides inhibit biofilm formation. P. aeruginosa PAO1 (overnight cultures, diluted 1:100 were incubated with 50 μg/ml of each peptide (LL37, GK7, GL13, KL11) or lysozyme for 6 h under aerobic (FIG. 7A) or reduced oxygen (anaerobic) (FIG. 7B) conditions. The OD 570 (growth) was determined and the attached cells were then quantitated by staining with crystal violet (biofilm). Growth and biofilm values were normalized against the mean of samples without peptides (HOAc) and expressed as mean±SEM. The data in panel A are from three independent experiments, N=22−24. The data in panel B are from two independent experiments, N=16. Lysozyme (Lyz) data are from a single experiment, N=8. *) different from Growth, P<0.002\n(§2) Overnight cultures of P. aeruginosa PAO1 were diluted 1:100 in MHB and 100 μl/well were incubated with 5 μl of LL-37, GK-7, GL-13, KL-11 or lysozyme (1 mg/ml) in PVC microtiter plates. The plates were incubated for 6 h at 32° C. under aerobic or reduced oxygen conditions. Bacterial growth was quantitated spectrophotometrically at 570 nm. Twenty-five μl of 1% crystal violet in dH2O was added to each well and incubated 20 min at room temperature. The wells were emptied and washed three times in dH2O and then incubated for 30 min with 200 μl of 95% ethanol. The OD at 570 nm was determined as a measure of biofilm formation. Growth and biofilm values were normalized against the mean of samples incubated with 0.01% acetic acid without peptides.\nas §2, with “μl of the bacterial suspension was mixed” for “μl/well were incubated”, “50 μg/ml” for “5 μl”, “lysozyme” for “lysozyme (1 mg/ml)”"}, "[5]": {"system": "LPS-binding protein (LBP)", "assay": "Inhibition of LPS binding to LPS-binding protein (ELISA)", "details": "for Inhibition (Mean ± SEM) of LPS binding to LBP: relative to polymyxin B (100% inhibition), LPS preincubated with peptide", "method": "Analysis of the PSP sequence indicated three possible regions of biological activity. Initially, three peptides corresponding to the PSP sequence in these regions were designed and used in these studies. The initial step in the inflammatory cascade is the binding of LPS to LPS-binding protein. This binding was inhibited by preincubation of LPS with each of the three peptides. […] The binding of LPS to LPB was analyzed to ELISA. 0% inhibition (100% binding) was determined in the absence of inhibitors while 100% inhibition was determined in the presence of the inhibitor polymyxin B. The inhibition of each peptide is determined relative to the effect of polymyxin B."}, "[6]": {"system": "Aggregatibacter (Actinobacillus) actinomycetemcomitans JP2", "format": "cell-based", "details": "10 or 100 μg/ml", "method": "The PSP peptides GL13, GK7 and KL11, lysozyme, LL37 or no peptide (BLK) were incubated with P. aeruginosa (FIG. 3A) or A. actinomycetemcomitans (FIG. 3B). P. aeruginosa PAO1 (10^5 cells/ml) were incubated for 2 h at 35° C. with 10 μg/ml (open bars) or 100 μg/ml (shaded bars) of each peptide. A. actinomycetemcomitans JP2 (10^5 cells/nil) were incubated for 4 h at 37° C. under reduced oxygen conditions. Bacterial cultures were diluted and plated on LB agar (Pseudomonas) or BHI agar plates (A.a., low oxygen incubation) and surviving CFUs enumerated. The data are shown as mean±SEM, P. aeruginosa: N=8−22 at 100 μg/ml, N=2−10 at 10 μg/ml. A. actinomycetemcomitans: N=3. *) P<0.0001, **) P<0.004, ***) P<0.02\nOvernight cultures of bacteria were pelleted and resuspended in 10 mM sodium phosphate, pH 7.4 (10^5 CFU/ml). Diluted bacteria (100 μl) were incubated with 10 or 100 μg/ml of each peptide in 10 mM sodium phosphate, pH 7.4. P aeruginosa PAO1 were incubated for 2 h at 35° C. while A. actinomycetemcomitans JP2 were incubated for 4 h at 37° C. under reduced oxygen conditions. […]\nAs a second antibacterial assay, bactericidal activity was determined by incubating the peptides (10 or 100 μg/ml) with P. aeruginosa, A. actinomycetemcomitans or S. gordonii in 10 mM phosphate buffer. […]"}, "[7]": {"system": "sheep red blood cells", "assay": "Hemagglutination assay", "format": "cell-based", "details": "PBS, absence of serum, 2 h", "method": "FIG. 22: Hemagglutination of sheep red blood cells. RBCs were washed in PBS and incubated for 2 h in microtiter plates in PBS±5% fetal calf serum. Peptide concentrations were 83 μg/ml. The microtiter plate was imaged. Agglutinated red blood cells form a wide mat of cells, while non-agglutinated cells form a button shaped pellet.\nBriefly, unmodified sheep erythrocytes (Cappel, M P Biomedicals, Irvine, Calif.) were washed in PBS and suspended at 1% in PBS. Diluted erythrocytes and 20 μg/ml of each peptide in PBS were mixed in polypropylene microtiter plates (120 μl per well) and incubated for 2 h at 35° C. The plates were imaged on a Kodak Image station."}, "[8]": {"assay": "Affinity binding of PSP to LPS-Sepharose / immobilized LPS", "description": "PLUNC binds LPS, as expected from its structural similarity to LPS-Binding Protein (LBP). To determine if PSP also binds LPS, the protein was expressed in GH4C1 cells and the secretion medium was used for affinity chromatography on LPS-Sepharose. After binding, the affinity matrix was washed and then eluted with PBS+0.2 g/1 EDTA. […] The results of this experiment establish that PSP is an LPS-binding protein and provides a method for purification of PSP.\nSecretion medium from GH4C1 cells was loaded on LPS-Sepharose and the unbound fraction collected (this sample was divided on two lanes for PSP-WT). The column was washed and then eluted with PBS+EDTA. The eluted beads were boiled in SDS-sample buffer to release any remaining proteins."}}, "note": "“Also recorded” adds a separate entry of the source. No end group written: not given here.", "data": [{"molecule": "lysozyme: Lysozyme (egg white) from Fisher Scientific, established antimicrobial protein [reference compound]", "values": [{"measurement": "infection of lettuce leaves", "setting": "[1]", "value": "significantly reduced the infection"}, {"measurement": "reduction of growth of P. aeruginosa", "setting": "[2]; broth dilution assay", "value": "about 50%"}, {"measurement": "MIC", "setting": "[2]; two-fold serial dilutions starting at 84 μg/ml", "value": "did not exhibit a defined MIC"}, {"measurement": "growth inhibition of A. actinomycetemcomitans", "setting": "[3]", "value": "did not inhibit growth of A. actinomycetemcomitans"}, {"measurement": "bacterial growth in biofilm/adhesion assay", "setting": "[4]", "value": "affected neither growth nor biofilm formation; also recorded: affected neither growth nor adhesion"}, {"measurement": "biofilm formation / adhesion", "setting": "[4]", "value": "affected neither growth nor biofilm formation; also recorded: affected neither growth nor adhesion"}]}, {"molecule": "KAQEAEKLLNN [KN11]", "values": [{"measurement": "Inhibition (Mean ± SEM) of LPS binding to LBP", "setting": "[5]", "value": "36% ± 13"}]}, {"molecule": "KLLNNVISK [KK9]", "values": [{"measurement": "Inhibition (Mean ± SEM) of LPS binding to LBP", "setting": "[5]", "value": "34% ± 12"}]}, {"molecule": "CC[C@H](C)[C@H](NC(=O)[C@H](CCCCN)NC(=O)[C@H](CCC(=O)O)NC(=O)[C@H](CCCCN)NC(=O)[C@H](CO)NC(=O)[C@H](CCCCN)NC(=O)[C@H](CCCNC(=N)N)NC(=O)[C@H](Cc1ccccc1)NC(=O)[C@H](Cc1ccccc1)NC(=O)[C@H](CC(=O)O)NC(=O)CNC(=O)[C@H](CC(C)C)NC(=O)[C@@H](N)CC(C)C)C(=O)NCC(=O)N[C@@H](CCCCN)C(=O)N[C@@H](CCC(=O)O)C(=O)N[C@@H](Cc1ccccc1)C(=O)N[C@@H](CCCCN)C(=O)N[C@@H](CCCNC(=N)N)C(=O)N[C@H](C(=O)N[C@H](C(=O)N[C@@H](CCC(N)=O)C(=O)N[C@@H](CCCNC(=N)N)C(=O)N[C@H](C(=O)N[C@@H](CCCCN)C(=O)N[C@@H](CC(=O)O)C(=O)N[C@@H](Cc1ccccc1)C(=O)N[C@@H](CC(C)C)C(=O)N[C@@H](CCCNC(=N)N)C(=O)N[C@@H](CC(N)=O)C(=O)N[C@@H](CC(C)C)C(=O)N[C@H](C(=O)N1CCC[C@H]1C(=O)N[C@@H](CCCNC(=N)N)C(=O)N[C@H](C(=O)N[C@@H](CCC(=O)O)C(=O)N[C@@H](CO)C(=O)O)[C@@H](C)O)C(C)C)[C@@H](C)CC)C(C)C)[C@@H](C)CC", "note": "[LL37, reference compound]", "values": [{"measurement": "killing of A. actinomycetemcomitans", "setting": "[6]", "value": 100, "unit": "%"}, {"measurement": "hemagglutination (words)", "setting": "[7]", "value": "did not cause hemagglutination"}]}, {"molecule": "GQIINLKASLNLL-NH2 [GL13-D/N-NH2, GQIINLKASLNLL-(CONH2)]", "values": [{"measurement": "hemagglutination (words)", "setting": "[7]", "value": "caused hemagglutination"}]}, {"molecule": "GQIINLKASLDLL [GL13-OH, GQIINLKASLDLL]", "values": [{"measurement": "hemagglutination (words)", "setting": "[7]", "value": "caused hemagglutination"}]}, {"molecule": "Substance P: antibacterial cationic peptide substance P", "values": [{"measurement": "effect on LPS binding to LBP", "setting": "[5]", "value": "had no effect on LPS binding to LBP"}, {"measurement": "Inhibition (Mean ± SEM) of LPS binding to LBP", "setting": "[5]", "value": "−18% ± 19"}]}, {"molecule": "PSP: human Parotid Secretory Protein (SPLUNC2, C20ORF70), SEQ ID NO:6 (protein, listed as Homo sapiens) MLQLWKLVLLCGVLTGTSESLLDNLGNDLSNVVDKLEPVLHEGLETVDNTLKGILEKLKVDLGVLQKSSAWQLAKQKAQEAEKLLNNVISKLLPTNTDIFGLKISNSLILDVKAEPIDDGKGLNLSFPVTANVTVAGPIIGQIINLKASLDLLTAVTIETDPQTHQPVAVLGECASDPTSISLSLLDKHSQIINKFVNSVINTLKSTVSSLLQKEICPLIRIFIHSLDVNVIQQVVDNPQHKTQLQTLI", "values": [{"measurement": "binding of PSP to LPS", "setting": "[8]", "value": "quantitatively retained by the LPS affinity matrix; also recorded: bound to immobilized P. aeruginosa LPS"}]}]}
